Patent US20240287104A1, “NUCLIDE LABELLED H-TETRAZINES AND USE THEREOF FOR PET AND SPECT PRETARGETED IMAGING AND RADIONUCLIDE THERAPY” (RIGSHOSPITALET, priority 2020, published 2024)

What was measured:
[1] = In vivo stability of 18F-labeled Tz-derivatives, plasma radio-TLC; conditions: naïve mice, n=4
Excerpt: In order to verify that the results from the blocking study can be used to predict the outcome for in vivo PET imaging, 18 Tz-derivatives from the first library were selected. The selection was based on criteria such as, the possibility for ^18F-labeling, structural diversity, lipophilicities and distinct IEDDA reactivities. For this purpose, we decided to use an indirect radiolabeling approach, enabling the combination of different building blocks to rapidly access a series of ^18F-labeled Tz-derivatives. The Cu-catalyzed azide-alkyne [3+2] cycloaddition (CuAAC) appeared to be suitable in this respect, as it allows for fast and efficient radiolabeling under mild reaction conditions. Six precursor Tz-alkynes (I-VI) were prepared and reacted with three ^18F-labeled azides ([^18F]Az1-Az3) to obtain 18 different [^18F]Tz-probes (FIG. 17). Notes to Table 6 showing the results obtained: ^aRCYs were decay-corrected to the starting amount of radioactivity for the respective azide or *RCY was determined starting from ^18F—. ^bMolar activities (Am) differ due to the use of different cyclotrons. ^cRCP was determined by radio-HPLC. ^dIn vivo stability of [^18F]Tz was assessed by determining the fraction (%) of radioactivity corresponding to intact compound after 30 min (n=4) from radio-TLC analysis. n.d.=not determined.
Next, we investigated whether there is a relationship between the in vivo stability of Tz-derivatives and their blocking ability. Fifteen ^18F-labeled tetrazines were studied in naïve mice. Blood was collected after 30 min, and plasma samples were analyzed by radio-TLC for stability assessment (Table 6). […] Consequently, six [^18F]Tz ([^18F]1a, [^18F]3a, [^18F]19a, [^18F]26a, [^18F]44a, and [^18F]45a) were selected for further in vivo studies solely based on the IEDDA-reactivity (second-order rate constants between 72 and 230 M^−1s^−1) and lipophilicity (c log D7.4 between −1.53 and 2.10). These radiolabeled Tz-probes were used to investigate if the results from the blocking assay can be translated to pretargeted PET imaging at tracer doses.

[2] = test system: CC49-TCO pretargeted LS174T tumor xenografts; assay: Pretargeted PET imaging with six 18F-labeled Tz-derivatives (Example 140); assay type: in vivo, BALB/c nude mice; conditions: PET 1 h p.i., n=3-4 per group
Experimental: Mice (n=3-4 per group) were injected i.v. with either CC49-TCO or 0.9% saline (control experiments). After 72 h, ^18F-labeled Tz (5-10 MBq) were administered and the mice were PET/CT-scanned 1 h p.i. A 3D region of interest (ROI) was created on the entire tumor volume, as well as heart and muscle tissue, and the uptake was quantified as percentage of the injected dose per gram (mean % ID/g), tumor-to-blood (T/B) and tumor-to-muscle (T/M) ratios (FIG. 18A-D). FIG. 18 (A) is a schematic illustration of the pretargeting experiment and the research question: Is there a correlation between the blocking effect and the PET imaging contras. (B) Image-derived mean uptake values are presented as percentage of the injected dose per gram (% ID/g) in tumor. (C) Tumor-to-muscle (T/M) ratios (n=4 mice, except for [^18F]3, n=3). Data is represented as mean±S.D. (*p<0.05 and *** p<0.001). For all groups n=4 mice (except [^18F]3a where n=3) (D) Correlation between the blocking effect of the unlabeled Tz-derivatives 1a, 3a, 19a, 26a, 44a, and 45a and the T/M-ratios for the corresponding ^18F-labeled compounds observed by in vivo pretargeted PET imaging. A strong correlation was found (linear regression: R2=0.78, p=0.019, n=6). Data is represented as mean±S.D. The asterisk indicates significant difference (* p<0.05 and *** p<0.001) when compared to control. (E) Representative images of PET scans 1 h p.i. of the radiolabeled Tz ([^18F]1a, [^18F]3a, [^18F]19a, [^18F]26a, [^18F]44a and [^18F]45a) in pretargeted PET imaging studies (T indicates the position of the tumor).
This difference was also observed for the three ^18F-labeled Tz-derivatives showing specific tumor accumulation ([^18F]3a, [^18F]19a and [^18F]45a), but not for the non-accumulating probes [^18F]1a and [^18F]26a (FIG. 18B). Binding to residual mAb in the blood pool is a frequently reported challenge in pretargeted imaging approaches, and has been addressed by the development of clearing agents.

[3] = test system: CC49-TCO pretargeted LS174T colon carcinoma xenografts; assay: Pretargeted blocking assay with [111In]Q (Example 140); assay type: in vivo, BALB/c mice; conditions: as listed in Table 6, value of the unlabeled Tz
Experimental: All animal studies were approved by the Danish Animal Welfare Council, ministry of Justice. Five weeks old female nude BALB/c mice (Charles River, Sulzfeld, Germany) were allowed to acclimatize for one week with access to water and chow ad libitum. Human colon cancer cell line (LS174T; obtained from ATCC) was cultured in minimum essential medium (MEM) supplemented with 10% fetal bovine serum, 1% L-Glutamine, 1% Sodium pyruvate, 1% non-essential amino acids, and 1% penicillin-streptomycin at 37° C. and 5% CO2. Cells were harvested by trypsination at a confluence of 70-90% and subcutaneous tumors were established in the left flank of the 6 weeks old animals by inoculation of ˜5×10^6 LS174T cells resuspended in sterile PBS (100 μL) and allowed to grow for 7-10 days. Tumors were measured using a caliper and the volume calculated using the formula volume=½(length×width^2).
The assay was inspired by receptor blocking experiments and based on the pretargeted imaging approach reported by Rossin et al. An ^111In-labeled Tz [^111In]Q was used in pair with TCO-modified CC49, a non-internalizing mAb that targets the tumor-associated glycoprotein 72 (TAG72), as a benchmark model for the in vivo ligation.
The TCO-modification of CC49 was carried out according to Rossin et al. To study the in vivo ligation performance of Tz-derivatives 1a-45a, BALB/c mice bearing LS174T colon carcinoma xenografts were injected intravenously (i.v.) with CC49-TCO 72 h prior to i.v. injection of the unlabeled Tz, followed by administration of [^111In]Q 1 h later. The animals were euthanized after 22 h and an ex vivo biodistribution was carried out to quantify the tumor uptake of [111 In]Q (FIG. 15). The efficiency of the in vivo ligation of the unlabeled Tz can thus be correlated to a reduced uptake of [111 In]Q (FIG. 15). As a control, blocking was performed using the non-radioactive precursor of [^111In]Q, which blocked ≥99% of the [^111In]Q tumor uptake. A group of CC49-TCO pretreated mice were injected exclusively with [^111In]Q (without blocking) and the determined uptake was used as reference value (100%) to normalize the observed changes in tumor uptake in blocking experiments.
All of these probes include H-phenyl-, pyrimidyl-phenyl-, or bis(pyridyl)-Tz-scaffolds with second-order rate constants for the reaction with TCO of >70 M 1 s 1 (1,4-dioxane, 25° C.) or of >39,000 M 1 s 1 (DPBS, 37° C.) (cf. Table 5). Next, potential correlations between the blocking effect, the c log D7.4 and the TPSA, as well as IEDDA reactivity were investigated. […] However, a distinct relationship between c log D7.4 values and the blocking effect was evidently observed when comparing Tz-derivatives with similar IEDDA reactivity (FIG. 16C, 16D). For all Tz-scaffolds a Pearson's correlation coefficient >0.78 was found. […] The blocking effect of non-radiolabeled Tz was determined as the change in tumor uptake of [111 In]Q 22 h p.i. Each Tz was administered 1 h prior to [111 In]Q and the uptake normalized to a group of animals were no blocking was performed (control). Data represent mean from n=3 mice/group. Correlation of blocking effect and c log D7.4 for Tz-derivatives with similar IEDDA reactivity (as shown in FIGS. 16C and D) where data was fitted to exponential growth equation Y=Y0 ekx (dotted line). The statistical analysis of the correlation between tumor uptake and c log D7.4 for the different groups of Tz-derivatives (shown in Table 7) was obtained by Pearson's correlation coefficient (r) which describes the goodness of fit between the blocking effect and c log D7.4. Notes: a Reaction of representative Tz with unsubstituted TCO; “Reaction of representative Tz with TCO-PEG4;” Measured for Tz-scaffold A only; n.d.=not determined.

[4] = Second order rate constants from stopped-flow measurements with TCO at 25° C. in ACN (Table 1); assay type: physicochemical; conditions: second order rate constants estimated from stopped-flow measurements of the alkyne-Tz building block with TCO at 25° C. in ACN
Experimental: In Table 1, the following letters in brackets defines the following: [a] Radiochemical conversion (RCC) and Radiochemical purity (RCP) were determined by radio-HPLC (n=3); [b] Radiochemical yield (RCY) was decay corrected to the starting amount of radioactivity received from the cyclotron and the isolated product without formulation step (n=3); [c] Second order rate constants estimated from stopped-flow measurements of the alkyne-Tz building block with TCO at 25° C. in CAN; [d] No product formed or could not be isolated.
Reaction kinetics of the Tz-derivatives were determined by pseudo-first order measurements in dioxane at 25.0±0.1° C. or PBS at 27.0±0.1° ° C. in a SX20 stopped flow photometer (Applied Photophysics). The pseudo first order rate constant was determined by linearization of the decay curve followed by linear fitting. The second order rate constant was calculated from the pseudo-first order rate constant.

| SMILES | In vivo stability (% intact [^18F]Tz after 30 min) [1] [%] | Tumor accumulation in mice pretreated with CC49-TCO compared to control animals [2] | Blocking effect (%) (of unlabeled Tz) [3] | k2 [4] [M⁻¹ s⁻¹] |
| --- | --- | --- | --- | --- |
| [18F]CCn1cc(COc2ccc(-c3nncnn3)cc2)nn1 [[^18F]1a] | 90 | no significant difference in tumor uptake | 9 |  |
| O[C@@H]1[C@@H](O)[C@H](n2cc(COc3ccc(-c4nncnn4)cc3)nn2)O[C@H](C[18F])[C@H]1O [[^18F]3a] | 76 | significantly increased tumor accumulation | 81 |  |
| Cc1nnc(-c2ccc(OCc3cn(CC[18F])nn3)cc2)nn1 [[^18F]5a] | 26 |  | 10 |  |
| Cc1nnc(-c2ccc(OCc3cn([C@@H]4O[C@H](C[18F])[C@@H](O)[C@H](O)[C@H]4O)nn3)cc2)nn1 [[^18F]7a] | 60 |  | 3 |  |
| [18F]CCn1cc(COc2ccc(-c3nnc(-c4ccccn4)nn3)cc2)nn1 [[^18F]12a] | 10 |  | 0 |  |
| O[C@@H]1[C@@H](O)[C@H](n2cc(COc3ccc(-c4nnc(-c5ccccn5)nn4)cc3)nn2)O[C@H](C[18F])[C@H]1O [[^18F]14a] | 43 |  | 24 |  |
| [18F]CCn1cc(-c2ccc(-c3nncnn3)cc2)nn1 [[^18F]17a] | 32 |  | 0 |  |
| O[C@@H]1[C@@H](O)[C@H](n2cc(-c3ccc(-c4nncnn4)cc3)nn2)O[C@H](C[18F])[C@H]1O [[^18F]19a] | 87 | significantly increased tumor accumulation | 76 |  |
| O=C(Nc1ccc(-c2nnc(-c3ccccn3)nn2)nc1)c1ccc(-c2cn(CC[18F])nn2)cc1 [[^18F]25a] |  |  | 16 |  |
| O=C(Nc1ccc(-c2nnc(-c3ccccn3)nn2)nc1)c1ccc(-c2cn([C@@H]3O[C@H](C[18F])[C@@H](O)[C@H](O)[C@H]3O)nn2)cc1 [[^18F]27a] |  |  | 51 |  |
| O=C(CCc1cn(CC[18F])nn1)Nc1ccc(-c2nnc(-c3ccccn3)nn2)nc1 [[^18F]43a] | 10 |  | 67 |  |
| O=C(CCc1cn([C@@H]2O[C@H](C[18F])[C@@H](O)[C@H](O)[C@H]2O)nn1)Nc1ccc(-c2nnc(-c3ccccn3)nn2)nc1 [[^18F]45a] | 42 | significantly increased tumor accumulation | 99 |  |
| [18F]c1cccc(-c2nncnn2)c1 [[^18F]-9] |  |  |  | 222 |
| [18F]c1ccc(-c2nnc(-c3ccccc3)nn2)cc1 [[^18F]E] |  |  |  | 18 |
| [18F]c1cccc(-c2nnc(-c3ccccc3)nn2)c1 [[^18F]R] |  |  |  | 30 |
| [18F]c1ccc(-c2nnc(-c3ccccn3)nn2)cc1 [[^18F]T] |  |  |  | 106 |
| Cc1nnc(-c2ccc([18F])cc2)nn1 [[^18F]Tz1] |  |  |  | 2.25 |
| [18F]c1ccc(-c2nnc(-c3ccccn3)nn2)nc1 [[^18F]U] |  |  |  | 206 |
| [18F]c1ccc(-c2nncnn2)cc1 [[^18F]Y] |  |  |  | 159 |
